Experimental data from US20080004344A1, “Novel Salts of Fumaric Acid Monoalkylesters and Their Pharmaceutical Use” (ADITECH PHARMA AB, priority 2004, published 2008).

Experiments:
[1] = tested on: IL-10; experiment: Monocyte stimulation cultures of PBMC (LPS or unstimulated), IL-10 ELISA
[2] = tested on: IL-8; experiment: Monocyte stimulation cultures of PBMC (LPS or unstimulated), IL-8 ELISA
[3] = tested on: IL-2; experiment: T cell specific stimulation of PBMC (CD3/CD28 beads), IL-2 ELISA; type: cell-based, human; conditions: for IL-2 Conc: CD3/CD28 beads
Experimental: (§1) PBMC were isolated from blood of two healthy volunteers (person) via Ficoll density gradient centrifugation. The purified cells were used in parallel cultures for monocyte stimulations using Lipopolysaccharide (LPS) and T cell specific stimulations using bead-coupled antibodies directed against the T cell activation antigens CD3 and CD28.
(§2) Cultures were incubated in a tissue culture incubator at 37° C., 5% CO2 for 20 h, culture supernatants were harvested at the end of the culture period and used for cytokine quantitation. The measured cytokines in cell culture supernatants from either monocyte stimulation cultures (IL-8, IL-10, TNF-α) or T cell stimulation cultures (IL-2, IL-4) were quantitated with ELISAs (Becton Dickinson) according to the manufacturers instructions. The resulting optical density (OD) was measured on a Packard Fusion Reader and OD values were translated to cytokine concentrations (in pg/ml) with the use of the Fusion Reader Data Analysis Software.

[4] = pH-value of the solution on dissolving in water; type: physicochemical; conditions: dissolved in water
Experimental: When strontium monomethyl fumarate is dissolved in water, the pH-value of the solution raises to alkaline values (pH˜9-10), owing to production of hydroxyl ions: Sr(C5H5O4)2+2H2O→Sr^2+(aq)+2C5H6O4(aq)+2OH^−(aq) (2)

[5] = tested on: TNF-alpha; experiment: Monocyte stimulation cultures of PBMC (LPS or unstimulated), TNF-alpha ELISA; type: cell-based, human
Experimental: as §1, §2

[6] = tested on: IL-4; experiment: T cell specific stimulation of PBMC (CD3/CD28 beads), IL-4 ELISA; type: cell-based, human; conditions: for IL-4 Conc: CD3/CD28 beads
Experimental: as §1, §2

[7] = LPS 1 ng/ml, 10 μM MMF, Donor 1
[8] = LPS 1 ng/ml, 10 μM MMF, Donor 2
[9] = LPS 1 ng/ml, 30 μM MMF, Donor 1
[10] = LPS 1 ng/ml, 30 μM MMF, Donor 2
[11] = LPS 1 ng/ml, 100 μM MMF, Donor 1
[12] = LPS 1 ng/ml, 100 μM MMF, Donor 2
[13] = LPS 1 ng/ml, 300 μM MMF, Donor 1
[14] = LPS 1 ng/ml, 300 μM MMF, Donor 2
[15] = as single stimulant (unstimulated monocytes)
[16] = no LPS printed for these rows, 1 μM MMF, Donor 1
[17] = no LPS printed for these rows, 1 μM MMF, Donor 2
[18] = no LPS printed for these rows, 3 μM MMF, Donor 1
[19] = no LPS printed for these rows, 3 μM MMF, Donor 2
[20] = no LPS printed for these rows, 10 μM MMF, Donor 1
[21] = no LPS printed for these rows, 10 μM MMF, Donor 2
[22] = no LPS printed for these rows, 30 μM MMF, Donor 1
[23] = no LPS printed for these rows, 30 μM MMF, Donor 2
[24] = no LPS printed for these rows, 100 μM MMF, Donor 1
[25] = no LPS printed for these rows, 100 μM MMF, Donor 2
[26] = no LPS printed for these rows, 300 μM MMF, Donor 1
[27] = no LPS printed for these rows, 300 μM MMF, Donor 2
[28] = no LPS printed for these rows, 1 mM MMF, Donor 1
[29] = no LPS printed for these rows, 1 mM MMF, Donor 2
[30] = no LPS printed for these rows, 3 mM MMF, Donor 1
[31] = no LPS printed for these rows, 3 mM MMF, Donor 2

## di-strontium-tetrakis-(mono methyl fumarate)-tetra hydrate [strontium MMF]
[1]; LPS 1 ng/ml, 1 μM MMF, Donor 1
  IL-10 Conc: 11 pg/mL
[1]; LPS 1 ng/ml, 1 μM MMF, Donor 2
  IL-10 Conc: 11 pg/mL
[1]; LPS 1 ng/ml, 3 μM MMF, Donor 1
  IL-10 Conc: 13 pg/mL
[1]; LPS 1 ng/ml, 3 μM MMF, Donor 2
  IL-10 Conc: 5 pg/mL
[1]; [7]
  IL-10 Conc: 106 pg/mL
[1]; [8]
  IL-10 Conc: 13 pg/mL
[1]; [9]
  IL-10 Conc: 62 pg/mL
[1]; [10]
  IL-10 Conc: 32 pg/mL
[1]; [11]
  IL-10 Conc: 7 pg/mL
[1]; [12]
  IL-10 Conc: 0 pg/mL
[1]; [13]
  IL-10 Conc: 0 pg/mL
[1]; [14]
  IL-10 Conc: 0 pg/mL
[1]; LPS 1 ng/ml, 1 mM MMF, Donor 1
  IL-10 Conc: 2 pg/mL
[1]; LPS 1 ng/ml, 1 mM MMF, Donor 2
  IL-10 Conc: 0 pg/mL
[1]; LPS 1 ng/ml, 3 mM MMF, Donor 1
  IL-10 Conc: 1 pg/mL
[1]; LPS 1 ng/ml, 3 mM MMF, Donor 2
  IL-10 Conc: 0 pg/mL
[1]; LPS-stimulated monocytes
  effect on IL-10 secretion: co-induced
[1]; [15]
  effect on IL-10 secretion: induced
[1]; [16]
  IL-10 Conc: 775 pg/mL
[1]; [17]
  IL-10 Conc: 1125 pg/mL
[1]; [18]
  IL-10 Conc: 886 pg/mL
[1]; [19]
  IL-10 Conc: 1385 pg/mL
[1]; [20]
  IL-10 Conc: 1026 pg/mL
[1]; [21]
  IL-10 Conc: 2035 pg/mL
[1]; [22]
  IL-10 Conc: 351 pg/mL
[1]; [23]
  IL-10 Conc: 800 pg/mL
[1]; [24]
  IL-10 Conc: 7 pg/mL
[1]; [25]
  IL-10 Conc: 40 pg/mL
[1]; [26]
  IL-10 Conc: 0 pg/mL
[1]; [27]
  IL-10 Conc: 0 pg/mL
[1]; [28]
  IL-10 Conc: 0 pg/mL
[1]; [29]
  IL-10 Conc: 0 pg/mL
[1]; [30]
  IL-10 Conc: 0 pg/mL
[1]; [31]
  IL-10 Conc: 0 pg/mL
[2]; LPS 1 ng/ml, 1 μM MMF, Donor 1
  IL-8 Conc: 35264 pg/mL
[2]; LPS 1 ng/ml, 1 μM MMF, Donor 2
  IL-8 Conc: 25146 pg/mL
[2]; LPS 1 ng/ml, 3 μM MMF, Donor 1
  IL-8 Conc: 26255 pg/mL
[2]; LPS 1 ng/ml, 3 μM MMF, Donor 2
  IL-8 Conc: 24672 pg/mL
[2]; [7]
  IL-8 Conc: 1259306 pg/mL
[2]; [8]
  IL-8 Conc: 70691 pg/mL
[2]; [9]
  IL-8 Conc: 1369127 pg/mL
[2]; [10]
  IL-8 Conc: 1357587 pg/mL
[2]; [11]
  IL-8 Conc: 80524 pg/mL
[2]; [12]
  IL-8 Conc: 1285660 pg/mL
[2]; [13]
  IL-8 Conc: 7135 pg/mL
[2]; [14]
  IL-8 Conc: 31370 pg/mL
[2]; LPS 1 ng/ml, 1 mM MMF, Donor 1
  IL-8 Conc: 558 pg/mL
[2]; LPS 1 ng/ml, 1 mM MMF, Donor 2
  IL-8 Conc: 2825 pg/mL
[2]; LPS 1 ng/ml, 3 mM MMF, Donor 1
  IL-8 Conc: 86 pg/mL
[2]; LPS 1 ng/ml, 3 mM MMF, Donor 2
  IL-8 Conc: 424 pg/mL
[2]; LPS stimulated monocytes
  effect on IL-8 secretion: did not induce a co-stimulation
[2]; [16]
  IL-8 Conc: 138285 pg/mL
[2]; [17]
  IL-8 Conc: 241352 pg/mL
[2]; [18]
  IL-8 Conc: 219130 pg/mL
[2]; [19]
  IL-8 Conc: 349450 pg/mL
[2]; [20]
  IL-8 Conc: 249798 pg/mL
[2]; [21]
  IL-8 Conc: 446267 pg/mL
[2]; [22]
  IL-8 Conc: 179340 pg/mL
[2]; [23]
  IL-8 Conc: 315447 pg/mL
[2]; [24]
  IL-8 Conc: 60312 pg/mL
[2]; [25]
  IL-8 Conc: 153980 pg/mL
[2]; [26]
  IL-8 Conc: 12354 pg/mL
[2]; [27]
  IL-8 Conc: 31040 pg/mL
[2]; [28]
  IL-8 Conc: 1696 pg/mL
[2]; [29]
  IL-8 Conc: 5363 pg/mL
[2]; [30]
  IL-8 Conc: 176 pg/mL
[2]; [31]
  IL-8 Conc: 577 pg/mL
[2]; unstimulated monocytes
  effect on IL-8 secretion: did induce an induction
[3]; 1 μM MMF, Donor 1
  IL-2 Conc: 5787 pg/mL
[3]; 1 μM MMF, Donor 2
  IL-2 Conc: 2559 pg/mL
[3]; 3 μM MMF, Donor 1
  IL-2 Conc: 4699 pg/mL
[3]; 3 μM MMF, Donor 2
  IL-2 Conc: 1754 pg/mL
[3]; 10 μM MMF, Donor 1
  IL-2 Conc: 5901 pg/mL
[3]; 10 μM MMF, Donor 2
  IL-2 Conc: 1905 pg/mL
[3]; 30 μM MMF, Donor 1
  IL-2 Conc: 4592 pg/mL
[3]; 30 μM MMF, Donor 2
  IL-2 Conc: 2079 pg/mL
[3]; 100 μM MMF, Donor 1
  IL-2 Conc: 170 pg/mL
[3]; 100 μM MMF, Donor 2
  IL-2 Conc: 65 pg/mL
[3]; 300 μM MMF, Donor 1
  IL-2 Conc: 2 pg/mL
[3]; 300 μM MMF, Donor 2
  IL-2 Conc: 0 pg/mL
[3]; 1 mM MMF, Donor 1
  IL-2 Conc: 0 pg/mL
[3]; 1 mM MMF, Donor 2
  IL-2 Conc: 1 pg/mL
[3]; 3 mM MMF, Donor 1
  IL-2 Conc: 1 pg/mL
[3]; 3 mM MMF, Donor 2
  IL-2 Conc: 3 pg/mL
[3]; after T-cell stimulation
  effect on IL-2 secretion: co-induction
[4]
  pH-value of the solution: 9-10
[5]; LPS 1 ng/ml, 1 μM MMF, Donor 1
  TNF-alpha Conc: 464 pg/mL
[5]; LPS 1 ng/ml, 1 μM MMF, Donor 2
  TNF-alpha Conc: 459 pg/mL
[5]; LPS 1 ng/ml, 3 μM MMF, Donor 1
  TNF-alpha Conc: 631 pg/mL
[5]; LPS 1 ng/ml, 3 μM MMF, Donor 2
  TNF-alpha Conc: 650 pg/mL
[5]; [7]
  TNF-alpha Conc: 1624 pg/mL
[5]; [8]
  TNF-alpha Conc: 2559 pg/mL
[5]; [9]
  TNF-alpha Conc: 1787 pg/mL
[5]; [10]
  TNF-alpha Conc: 3289 pg/mL
[5]; [11]
  TNF-alpha Conc: 250 pg/mL
[5]; [12]
  TNF-alpha Conc: 711 pg/mL
[5]; [13]
  TNF-alpha Conc: 20 pg/mL
[5]; [14]
  TNF-alpha Conc: 96 pg/mL
[5]; LPS 1 ng/ml, 1 mM MMF, Donor 1
  TNF-alpha Conc: 0 pg/mL
[5]; LPS 1 ng/ml, 1 mM MMF, Donor 2
  TNF-alpha Conc: 11 pg/mL
[5]; LPS 1 ng/ml, 3 mM MMF, Donor 1
  TNF-alpha Conc: 0 pg/mL
[5]; LPS 1 ng/ml, 3 mM MMF, Donor 2
  TNF-alpha Conc: 0 pg/mL
[5]; LPS-stimulated monocytes
  effect on TNF-alpha secretion: co-stimulatory
[5]; [15]
  effect on TNF-alpha secretion: induced
[5]; [16]
  TNF-alpha Conc: 29 pg/mL
[5]; [17]
  TNF-alpha Conc: 13 pg/mL
[5]; [18]
  TNF-alpha Conc: 38 pg/mL
[5]; [19]
  TNF-alpha Conc: 10 pg/mL
[5]; [20]
  TNF-alpha Conc: 570 pg/mL
[5]; [21]
  TNF-alpha Conc: 47 pg/mL
[5]; [22]
  TNF-alpha Conc: 1343 pg/mL
[5]; [23]
  TNF-alpha Conc: 682 pg/mL
[5]; [24]
  TNF-alpha Conc: 313 pg/mL
[5]; [25]
  TNF-alpha Conc: 236 pg/mL
[5]; [26]
  TNF-alpha Conc: 3 pg/mL
[5]; [27]
  TNF-alpha Conc: 12 pg/mL
[5]; [28]
  TNF-alpha Conc: 0 pg/mL
[5]; [29]
  TNF-alpha Conc: 3 pg/mL
[5]; [30]
  TNF-alpha Conc: 0 pg/mL
[5]; [31]
  TNF-alpha Conc: 0 pg/mL
[6]; 1 μM MMF, Donor 1
  IL-4 Conc: 60 pg/mL
[6]; 1 μM MMF, Donor 2
  IL-4 Conc: 12 pg/mL
[6]; 3 μM MMF, Donor 1
  IL-4 Conc: 70 pg/mL
[6]; 3 μM MMF, Donor 2
  IL-4 Conc: 10 pg/mL
[6]; 10 μM MMF, Donor 1
  IL-4 Conc: 69 pg/mL
[6]; 10 μM MMF, Donor 2
  IL-4 Conc: 12 pg/mL
[6]; 30 μM MMF, Donor 1
  IL-4 Conc: 92 pg/mL
[6]; 30 μM MMF, Donor 2
  IL-4 Conc: 20 pg/mL
[6]; 100 μM MMF, Donor 1
  IL-4 Conc: 3 pg/mL
[6]; 100 μM MMF, Donor 2
  IL-4 Conc: 0 pg/mL
[6]; 300 μM MMF, Donor 1
  IL-4 Conc: 0 pg/mL
[6]; 300 μM MMF, Donor 2
  IL-4 Conc: 0 pg/mL
[6]; 1 mM MMF, Donor 1
  IL-4 Conc: 0 pg/mL
[6]; 1 mM MMF, Donor 2
  IL-4 Conc: 0 pg/mL
[6]; 3 mM MMF, Donor 1
  IL-4 Conc: 0 pg/mL
[6]; 3 mM MMF, Donor 2
  IL-4 Conc: 0 pg/mL
[6]; after T-cell stimulation
  effect on IL-4 secretion: co-induction
